Test results from patent US6747027B1, “Thiol sulfonamide metalloprotease inhibitors” (Pharmacia Corporation, priority 1996, dated 2004).

Experiments:
recombinant human MMP-1 = target: T1, recombinant human MMP-1 (Homo sapiens, UniProt P03956); test: In vitro metalloprotease inhibition, fluorogenic peptide assay (MMP-1); type: biochemical; conditions: recombinant human MMP-1, APMA activated; fluorogenic MCA peptide substrate 4 uM; pH 7.5, room temperature
T1 construct: made in house; host or cells: transfected HT-1080 cells (provided by Dr. Howard Welgus, Washington University)
T1 sequence (P03956 100-469): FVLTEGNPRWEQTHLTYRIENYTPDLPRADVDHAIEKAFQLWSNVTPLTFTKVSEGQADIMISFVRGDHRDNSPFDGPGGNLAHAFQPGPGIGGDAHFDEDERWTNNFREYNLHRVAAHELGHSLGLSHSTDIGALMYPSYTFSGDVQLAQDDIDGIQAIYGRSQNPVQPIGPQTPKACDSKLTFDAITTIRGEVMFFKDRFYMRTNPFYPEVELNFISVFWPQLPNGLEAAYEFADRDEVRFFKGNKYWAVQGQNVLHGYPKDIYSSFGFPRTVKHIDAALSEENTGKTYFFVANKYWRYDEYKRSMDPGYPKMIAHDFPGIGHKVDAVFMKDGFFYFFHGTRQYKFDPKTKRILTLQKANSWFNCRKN
Description: (§1) Certain of the compounds prepared in the manner described in Examples 1 to 223 were tested for activity by an in vitro assay. Following the procedures of Knight et al., FEBS Lett. 296(3):263 (1992). Briefly, 4-aminophenylmercuric acetate (APMA) or trypsin activated MMPs were incubated with various concentrations of the inhibitor compound at room temperature for 5 minutes (0.02% 2-mercapto-ethanol added to buffer for thiol compounds with 5 minutes or overnight incubation). More specifically, recombinant human MMP-13 and MMP-1 enzymes were prepared in laboratories of the inventors' employer. MMP-13 was expressed in baculovirus as a proenzyme, and purified first over a heparin agarose column and then over a chelating zinc chloride column. The proenzyme was activated by APMA for use in the assay. MMP-1 expressed in transfected HT-1080 was provided by Dr. Howard Welgus of Washington University, St. Louis, Mo. The enzyme was also activated using APMA and was then purified over a hydroxamic acid column.
(§2) The enzyme substrate is a methoxycoumarin-containing polypeptide having the following sequence:
(§3) MCA-ProLeuGlyLeuDpaAlaArgNH^2, wherein MCA is methoxycoumarin and Dpa is 3-(2,4-dinitrophenyl)-L-2,3-diaminopropionyl alanine. This substrate is commercially available from Baychem as product M-1895.
(§4) The buffer used for assays contained 100 mM Tris-HCl, 100 mM NaCl, 10 mM CaCl2 and 0.05 percent polyethyleneglycol(23) lauryl ether at a pH value of 7.5. Assays were carried out at room temperature, and dimethyl sulfoxide (DMSO) at a final concentration of 1 percent was used to dissolve inhibitor compound.
(§5) The assayed inhibitor compound in DMSO/buffer solution was compared to an equal amount of DMSO/buffer with no inhibitor as control using microfluor™ white plates (Dynatech). The inhibitor or control solution was maintained in the plate for 10 minutes and the substrate was added to provide a final concentration of 4 uM.
(§6) In the absence of inhibitor activity, a fluorogenic peptide is cleaved at the gly-leu peptide bond, separating the highly fluorogenic peptide from a 2.4-dinitrophenyl quencher, resulting in an increase of fluorescence intensity (excitation at 328 nm/emmision at 415 nm). Inhibition was measured as a reduction in fluorescent intensity as a function of inhibitor concentration, using a Perkin Elmer L550 plate reader. The IC50 values were calculated from those values. The results are set forth in the Inhibition Table below, reported in terms of IC50 to three significant figures.

recombinant human MMP-13 = target: T2, recombinant human MMP-13 (Homo sapiens, UniProt P45452); test: In vitro metalloprotease inhibition, fluorogenic peptide assay (MMP-13); type: biochemical; conditions: recombinant human MMP-13, APMA activated; fluorogenic MCA peptide substrate 4 uM; pH 7.5, room temperature
T2 construct: made in house
Description: as §1, §2, §3, §4, §5, §6

Compound	IC50 (recombinant human MMP-1) [nM]	IC50 (recombinant human MMP-13) [nM]
C[C@H](CS)NS(=O)(=O)c1ccccc1 (single isomer, unassigned) [Example 151]		> 10000
COc1ccc(S(=O)(=O)N(CCS)Cc2ccccc2)cc1 [Example 7C, N-(2-Mercaptoethyl)-N-(phenylmethyl)-4-methoxybenzenesulfonamide]	4000	300
CCCCCN(CCS)S(=O)(=O)c1ccc(OC)cc1 [Example 8, N-(2-Mercaptoethyl)-N-pentyl-4-methoxybenzenesulfonamide]	4200	65
COc1ccc(S(=O)(=O)N(Cc2ccccc2)CC(C)S)cc1 (centres unmarked) [Example 10]		550
COc1ccc(S(=O)(=O)N(C)[C@H](C)CS)cc1 [Example 11D, N-(2-Mercapto-1R-methylethyl)-N-methyl-4-methoxybenzenesulfonamide]	300	32.5
COc1ccc(S(=O)(=O)N(Cc2ccccc2)[C@H](C)CS)cc1 [Example 12C, N-(2-Mercapto-1R-methylethyl)-N-(phenylmethyl)-4-methoxybenzenesulfonamide]	1300	38.5
CCCCOc1ccc(S(=O)(=O)N[C@H](C)CS)cc1 [Example 15, N-(2-Mercapto-1R-methylethyl)-4-(n-butoxy)benzenesulfonamide]	> 10000	75
CCCCOc1ccc(S(=O)(=O)N(Cc2ccccc2)[C@H](C)CS)cc1 [Example 17C]	> 10000	260
C[C@H](CS)NS(=O)(=O)c1ccc(I)cc1 [Example 66, N-(2-mercapto-1R-methylethyl)-4-iodobenzenesulfonamide]		38
C[C@H](CS)NS(=O)(=O)c1ccc(C(F)(F)F)cc1 [Example 73, N-(2-mercapto-1R-methylethyl)-4-(trifluoromethyl)-benzenesulfonamide]		2100
C[C@H](CS)NS(=O)(=O)c1ccc(Cl)s1 [Example 86, N-(2-mercapto-1R-methylethyl)-5-chloro-2-thiophenesulfonamide]		1700
C[C@H](CS)NS(=O)(=O)c1sc(Br)cc1Br [Example 87, N-(2-mercapto-1R-methylethyl)-3,5-dibromo-2-thiophenesulfonamide]		8500
C[C@H](CS)NS(=O)(=O)c1ccc2oc3ccccc3c2c1 [Example 90, N-(2-mercapto-1R-methylethyl)-2-dibenzofuransulfonamide]		600
COc1ccc(S(=O)(=O)N(CCCSC(C)=O)Cc2ccccc2)cc1 [Example 98]		> 10000
C[C@H](CS)NS(=O)(=O)c1ccc(OCC(F)(F)F)cc1OCC(F)(F)F [Example 104]		> 10000
COc1ccc(S(=O)(=O)N[C@H](C)CS)c([N+](=O)[O-])c1 [Example 109]		> 10000
CSc1nccc(S(=O)(=O)N[C@H](C)CS)n1 [Example 150]		9000
C[C@H](CS)NS(=O)(=O)c1cc(Br)c(Cl)s1 [Example 152]		3000
C[C@H](CS)NS(=O)(=O)c1ccc(CNC(=O)c2ccc(Cl)cc2)s1 [Example 153]		> 10000
COC(=O)c1ccccc1S(=O)(=O)N[C@H](C)CS [Example 198]		2300
N-(2-mercapto-1R-methylethyl)-2-(trifluoromethyoxy)-benzenesulfonamide [Example 77]		> 10000
N-(2-mercapto-1R-methylethyl)-4-(n-butyl)benzenesulfonamide [Example 69]		175

The next lines start with the values.

IC50 (recombinant human MMP-1) [nM]	IC50 (recombinant human MMP-13) [nM]	Compound
8000	1800	COc1ccc(S(=O)(=O)N(Cc2ccccc2)C(CS)CC(C)C)cc1 (racemic) [Example 29F, N-[1-(Mercaptomethyl)-3-methylbutyl]-N-(phenylmethyl)-4-methoxybenzenesulfonamide]
2000	67.5	COc1ccc(S(=O)(=O)N(Cc2ccccc2)[C@H](C)CS)cc1 (racemic) [Example 56, N-(2-Mercapto-1R,S-methylethyl)-N-phenylmethyl-4-methoxybenzenesulfonamide benzenesulfonamide]
1060	46	COc1ccc(S(=O)(=O)N(CC(C)C)[C@H](C)CS)cc1 [Example 14C, N-(2-Mercapto-1R-methylethyl)-N-(2-methylpropyl)-4-methoxybenzenesulfonamide]
7000	245	COc1ccc(S(=O)(=O)N[C@H](C)CS)cc1 [Example 16B, N-(2-Mercapto-1R-methylethyl)-4-methoxybenzenesulfonamide]
	900	C[C@H](CS)NS(=O)(=O)c1ccc(Cl)cc1 [Example 64, N-(2-mercapto-1R-methylethyl)-4-chlorobenzenesulfonamide]
	570	CCc1ccc(S(=O)(=O)N[C@H](C)CS)cc1 [Example 67, N-(2-mercapto-1R-methylethyl)-4-ethylbenzenesulfonamide]
	2300	CC(C)c1ccc(S(=O)(=O)N[C@H](C)CS)cc1 [Example 72, N-(2-mercapto-1R-methylethyl)-4-isopropylbenzenesulfonamide]
	> 10000	C[C@H](CS)NS(=O)(=O)c1ccc(C(C)(C)C)cc1 [Example 74, N-(2-mercapto-1R-methylethyl)-4-(t-butyl)benzenesulfonamide]
	> 10000	Cc1cc(C)c(S(=O)(=O)N[C@H](C)CS)c(C)c1 [Example 79, N-(2-mercapto-1R-methylethyl)-2,4,6-trimethyl-benzenesulfonamide]
	> 10000	CC(C)c1cc(C(C)C)c(S(=O)(=O)N[C@H](C)CS)c(C(C)C)c1 [Example 80, N-(2-mercapto-1R-methylethyl)-2,4,6-triisopropyl-benzenesulfonamide]
	6500	C[C@H](CS)NS(=O)(=O)c1ccc(F)c(F)c1 [Example 81, N-(2-mercapto-1R-methylethyl)-3,4-difluoro-benzenesulfonamide]
	9000	C[C@H](CS)NS(=O)(=O)c1ccc(Br)s1 [Example 85, N-(2-mercapto-1R-methylethyl)-5-bromo-2-thiophenesulfonamide]
	365	C[C@H](CS)NS(=O)(=O)c1ccc(-c2ccon2)s1 [Example 88, N-(2-mercapto-1R-methylethyl)-5-(isoxazol-3-yl)-2-thiophenesulfonamide]
	4000	COc1ccc(S(=O)(=O)N(CCCS)Cc2ccccc2)cc1 [Example 97]
	3500	CCCCCCCCCCCCCCCCOc1ccc(S(=O)(=O)N[C@H](C)CS)cc1 [Example 105]
	500	C[C@H](CS)NS(=O)(=O)c1ccc(Oc2cccc(Cl)c2C#N)cc1 [Example 108]
	> 10000	C[C@H](CS)NS(=O)(=O)c1ccc(CNC(=O)c2ccccc2)s1 [Example 146]
	> 10000	C[C@H](CS)NS(=O)(=O)c1ccc(C(F)(F)F)cn1 [Example 148]
	> 10000	C[C@H](CS)NS(=O)(=O)c1cc(C(F)(F)F)n(C)n1 [Example 149]
	464	CCc1cc(Br)ccc1S(=O)(=O)N[C@H](C)CS [Example 195]
	> 10000	C[C@H](CS)NS(=O)(=O)c1ccccc1C(F)(F)F [Example 196]
	> 10000	C[C@H](CS)NS(=O)(=O)c1ccc(Br)cc1OC(F)(F)F [Example 204]
	> 10000	C[C@H](CS)NS(=O)(=O)c1cccc2cccnc12 [Example 206]
	> 10000	CCCCOc1cc(C(C)(C)CC(C)(C)C)ccc1S(=O)(=O)N[C@H](C)CS [Example 207]
	1320	CCCCOc1ccc(S(=O)(=O)N[C@@H](CS)C(=O)O)cc1 [Example 210]
	> 10000	C[C@H](CS)NS(=O)(=O)c1cn(C)cn1 [Example 214]
	1150	N-(2-mercapto-1R-methylethyl)-2-napthylenesulfonamide [Example 83]
